In patent US20020051811A1, “Method and composition for masking mineral taste” (priority 1999, published 2002):
Marks after values point to notes of the source that are not given here. Residues, ends and D or L forms follow the SMILES beside them.

Columns and labels:
Assay type in all cases: in vivo
[1] = AK added at low levels to solutions containing KCl, perceived bitter aftertaste; settings: 1 to 5 mg/100 ml
Description: The level of AK used was 1 to 5 mg/100 ml, which is equivalent in sweetness contribution to between 0.2% and 1% sucrose. This characteristic is specific to AK, and is not noted when […].

[2] = Expert panel evaluation of taste modifiers on taste of KCl solutions; settings: 1.26% KCl, score 0-8
Description: Additional testing was conducted, comparing the absence of taste modifiers with the three taste modifiers of the invention, both separately, and in combinations (AK and glycyrrhizin) (AK and tannic acid) (glycyrrhizin and tannic acid). […] In this study, again, 1.26% KCl was prepared, and used as the test medium for all experiments. The aqueous solution was evaluation by an expert panel for each of the taste attributes. The panel consisted of eight individuals who were screened for their taste acuity and trained in the use of the score sheet. The score sheet employed by the panel appears as Table III hereto.

[3] = Effect of glycyrrhizin on potassium-containing beverages (taste scores); settings: for effect on aftertaste of KCl: 20-40 mg/100 cc, beverage containing 2.52% KCl by weight; for Bitter / Metallic / Salt: 2.52% KCl beverage, scale 0 to 8
Description: The effect of glycyrrhizin on potassium-containing beverages was studied.

[4] = Effect of tannic acid on potassium-containing beverages (taste scores); settings: for Aftertaste / Bitter / Salt: 1.26% KCl beverage, scale 0 to 8
Description: The effect of tannic acid on potassium-containing beverages was studied.

## CC1=CC(=O)NS(=O)(=O)O1 [Acesulfame-K, acesulfame potassium]
[1]
  effect on perceived bitter aftertaste of KCl solutions: reduced the perceived bitter aftertaste
[2]; modifier 2.5 mg/100 cc
  Bitter: 3.0*
  Other: 2.8*
  Salt: 2.8
  Sour: 0.0
  Sweet: 0.0
[2]; modifier 5.0 mg/100 cc
  Bitter: 2.3*
  Other: 2.2*
  Salt: 2.3
  Sour: 0.0
  Sweet: 0.0
[2]; modifier 7.5 mg/100 cc
  Bitter: 1.8*
  Other: 0.5*
  Salt: 1.5*
  Sour: 0.0
  Sweet: 1.3

## COC(=O)[C@H](Cc1ccccc1)NC(=O)[C@@H](N)CC(=O)O [aspartame] (HELM PEPTIDE1{D.F.[CO[*:1]]}$$$$V2.0)
[1]
  effect on perceived bitter aftertaste of KCl solutions: not noted

## CC1(C)[C@@H](O[C@H]2O[C@H](C(=O)O)[C@@H](O)[C@H](O)[C@H]2O[C@@H]2O[C@H](C(=O)O)[C@@H](O)[C@H](O)[C@H]2O)CC[C@]2(C)[C@H]3C(=O)C=C4[C@@H]5C[C@@](C)(C(=O)O)CC[C@]5(C)CC[C@@]4(C)[C@]3(C)CC[C@@H]12 [glycyrrhizin]
[3]
  effect on aftertaste of KCl: effective in reducing the aftertaste of KCl
[3]; listed as Glycyrrhizin
  effect on aftertaste of KCl: effective in reducing the bitter and metallic aftertaste of KCl
[3]; +20 mg/100 cc glycyrrhizin
  Bitter: 2.5
  Metallic: 2.0
  Salt: 2.5
[3]; +40 mg/100 cc glycyrrhizin
  Bitter: 2.5
  Metallic: 2.0
  Salt: 2.0
[2]; modifier 5.0 mg/100 cc
  Bitter: 2.0*
  Other: 1.0*
  Salt: 3.5
  Sour: 0.0
  Sweet: 0.0
[2]; modifier 10.0 mg/100 cc
  Bitter: 3.3*
  Other: 2.0*
  Salt: 2.3
  Sour: 0.0
  Sweet: 0.0
[2]; modifier 20.0 mg/100 cc
  Bitter: 2.3*
  Other: 2.0*
  Salt: 2.0
  Sour: 0.0
  Sweet: 0.5

## O=C1NS(=O)(=O)c2ccccc21 [saccharin]
[1]
  effect on perceived bitter aftertaste of KCl solutions: not noted

## O=C(OC[C@H]1O[C@@H](OC(=O)c2cc(O)c(O)c(OC(=O)c3cc(O)c(O)c(O)c3)c2)[C@H](OC(=O)c2cc(O)c(O)c(OC(=O)c3cc(O)c(O)c(O)c3)c2)[C@@H](OC(=O)c2cc(O)c(O)c(OC(=O)c3cc(O)c(O)c(O)c3)c2)[C@@H]1OC(=O)c1cc(O)c(O)c(OC(=O)c2cc(O)c(O)c(O)c2)c1)c1cc(O)c(O)c(OC(=O)c2cc(O)c(O)c(O)c2)c1 [tannic acid]
[4]; +5 mg/100 cc tannic acid
  Aftertaste: 1.0
  Bitter: 1.0
  Salt: 1.5
[4]; +10 mg/100 cc tannic acid
  Aftertaste: 1.0
  Bitter: 1.0
  Salt: 1.0
[4]; +50 mg/100 cc tannic acid
  Aftertaste: 1.0
  Bitter: 2.5
  Salt: 1.5
[4]; beverage containing 1.26% KCl
  effect on bitter aftertaste and salty taste: reduces the level of bitter aftertaste without increasing the salty taste
[4]; levels as low as 5 mg/100 cc, beverage containing 1.26% KCl by weight
  effect on aftertaste of KCl: effective in reducing and eliminating the aftertaste of KCl
[2]; modifier 1.0 mg/100 cc
  Bitter: 3.0*
  Other: 3.3*
  Salt: 3.3
  Sour: 0.0
  Sweet: 0.0
[2]; modifier 5.0 mg/100 cc
  Bitter: 2.0*
  Other: 3.0*
  Salt: 3.8
  Sour: 0.0
  Sweet: 0.0
[2]; modifier 10.0 mg/100 cc
  Bitter: 2.0*
  Other: 2.0*
  Salt: 2.0
  Sour: 0.0
  Sweet: 0.0
